According to patent US20060154346A1, “Microorganism producing 5'xanthylic acid” (priority 2002, published 2006):

What was measured:
[1] = system: Corynebacterium ammoniagenes KCCM 10340; assay: Growth of the strain in medium with added oligomycin (resistance test); type: cell-based; design: key: +: growth; −: no growth; conditions: 30° C. for 5 days
Text: (§1) The invention relates to Corynebacterium ammoniagenes CJXOL 0201 (KCCM-10447) which is a mutant strain of Corynebacterium ammoniagenes KCCM 10340, producing 5′-xanthylic acid. The CJXOL 0201 is obtained by treating Corynebacterium ammoniagenes KCCM 10340 with UV radiation and mutation derivatives such as N-methy-N′-nitro-n-nitrosoguanidine(NTG) according to ordinary procedure, and selecting a mutant strain among these which can grow in the culture medium (glucose 20 g/L, potassium phosphate monobasic 1 g/L, potassium phosphate dibasic 1 g/L, urea 2 g/L, ammonium sulfate 3 g/L, magnesium sulfate 1 g/L, calcium chloride 100 mg/L, ferrous sulfate 20 mg/L, manganese sulfate 10 mg/L, zinc sulfate 10 mg/L, biotin 30 μg/L, thiamine hydrochloride 0.1 mg/L, copper sulfate 0.8 mg/L, adenine 20 mg/L, guanine 20 mg/L, pH 7.2) which different concentration levels of oligomycin (1,2,5,10,20,50 mg/L) is added into. […] 21, 2002 with accession Number KCCM 10447.
(§2) According to the Table 1, the microorganism of the invention can grow in the medium which 10 mg/L oligomycin was added into. The medium was: fermented at 30° C. for 5 days.

[2] = system: Corynebacterium ammoniagenes CJXOL 0201; assay: as above; type: cell-based; design: key to growth of strain: +: growth; −: no growth
Text: as §1, §2

CC[C@H]1/C=C/C=C/C[C@@H](C)[C@H](O)[C@@](C)(O)C(=O)[C@@H](C)[C@H](O)[C@@H](C)C(=O)[C@@H](C)[C@H](O)[C@@H](C)/C=C/C(=O)O[C@@H]2[C@H](C)[C@H](CC1)O[C@]1(CC[C@H](C)[C@H](C[C@@H](C)O)O1)[C@H]2C [Oligomycin, oligomycin]
growth of strain ([1]; oligomycin 10 mg/L): +
growth of strain ([1]; oligomycin 20 mg/L): −
growth of strain ([1]; oligomycin 30 mg/L): −
growth of strain ([1]; oligomycin 40 mg/L): −
growth of strain ([1]; oligomycin 50 mg/L): −
oligomycin concentration up to which resistance (growth) was shown; no growth above ([2]; 0˜50 mg/L oligomycin added into selection medium): up to 20 mg/L
growth in medium with oligomycin ([2]; oligomycin 10 mg/L, 30° C. for 5 days): can grow
growth of strain ([2]; oligomycin 30 mg/L, 30° C. for 5 days): +
growth of strain ([2]; oligomycin 40 mg/L, 30° C. for 5 days): −
growth of strain ([2]; oligomycin 50 mg/L, 30° C. for 5 days): −
